Experimental findings from publication PMC7002704, “Inhibitory effect of Citrus flavonoids on the in vitro transport activity of human urate transporter 1 (URAT1/SLC22A12), a renal re-absorber of urate” (NPJ Science of Food, 2020) are described below.

The target in test [1] is T1, urate transporter 1 (URAT1/SLC22A12) (Homo sapiens, UniProt Q96S37).
T1 sequence (Q96S37 1-553): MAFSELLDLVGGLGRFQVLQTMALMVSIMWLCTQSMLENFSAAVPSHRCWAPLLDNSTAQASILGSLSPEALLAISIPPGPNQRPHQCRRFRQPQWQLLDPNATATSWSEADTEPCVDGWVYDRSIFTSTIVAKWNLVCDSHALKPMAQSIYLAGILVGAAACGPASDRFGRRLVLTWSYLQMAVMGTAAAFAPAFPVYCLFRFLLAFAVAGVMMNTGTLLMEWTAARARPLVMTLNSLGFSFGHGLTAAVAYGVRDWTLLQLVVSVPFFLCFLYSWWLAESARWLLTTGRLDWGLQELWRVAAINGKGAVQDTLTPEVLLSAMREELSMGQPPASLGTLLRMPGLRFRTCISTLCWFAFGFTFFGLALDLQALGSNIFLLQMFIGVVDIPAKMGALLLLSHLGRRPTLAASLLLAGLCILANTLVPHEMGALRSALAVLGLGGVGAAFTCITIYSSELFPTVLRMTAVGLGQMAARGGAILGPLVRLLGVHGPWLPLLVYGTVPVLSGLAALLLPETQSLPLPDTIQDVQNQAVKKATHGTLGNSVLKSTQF

Test [2] deals with T1, urate transporter 1 (URAT1/SLC22A12). As to the kind of experiment: [[…]-14C]-urate uptake inhibition in URAT1-expressing […] cells. It counts as cell-based. The arrangement: EGFP-tagged URAT1 wild type (pEGFP-C1).

Like-named read-outs stand apart in the source and are kept apart here.

Turning to `CCc1oc2ccccc2c1C(=O)c1cc(Br)c(O)c(Br)c1` [benzbromarone], the “% inhibition at 10 μM” value in test [1] is on record as 96. The IC50 is the midpoint of a concentration-inhibition curve. Turning to `COc1ccc(-c2cc(=O)c3c(OC)c(OC)c(OC)c(OC)c3o2)cc1OC` [nobiletin], the IC50 in test [2] (read-out: IC50) turned out to be 17.6 µM. Consider `COc1ccc([C@@H]2CC(=O)c3c(O)cc(O)cc3O2)cc1O` [hesperetin], for which, in test [2], half-maximal inhibition (IC50) was put at 25.7 µM. The compound `O=C1C[C@@H](c2ccc(O)cc2)Oc2cc(O)cc(O)c21` [naringenin] had an IC50 in test [2] of 16.1 µM.
